Where no end group is shown, it is not given here.
Tests used:
naked CCR1 N-terminus = naked CCR1 N-terminus (Homo sapiens, UniProt P32246); experiment: Fluorescence polarization binding to FAM-labeled CCR1 N-terminal peptide; conditions: FAM probe 250 nM, FP buffer PBS:MilliQ 1:3, peptide 12.21 nM to 100 µM, n = 3, read-out: dissociation constant (Kd) for CCR1 N-terminal peptide
Experimental: (§1) Fluorescence polarization (FP) assay: The carboxyfluorescein (FAM)-labeled peptides representing the CCR1 and CCR5 N-termini functioned as the probes for quantifying the interaction between the receptor N-terminus and C21TP^81-111. The probe was diluted in FP buffer (1:3, PBS:MilliQ) and 10 µL was added to a final concentration of 250 nM per well in a black 384-well plate (Corning). The C21TP^81-111 peptide (2 mM) was diluted using a two-fold dilution series; 30 µL of the peptide was added to each well to final concentrations ranging from 12.21 nM to 100 µM. Blanks containing 10 µL probe and 30 µL FP buffer were included. The plate was spun down at 1000 rpm for 1 min and the FP signal was measured on a Flex station using SoftMax Pro software 7.0. Each experiment was conducted in triplicate. The binding curves were generated by plotting the FP signal, expressed as millipolarization units (mP), against C21TP^81-111 concentration. The dissociation constant (Kd) value was calculated using GraphPad Prism 9.
(§2) Probes: • CCR1: (5,6-FAM)-[…], • CCR5: (5,6-FAM)-ADYQVSSPIYDINYYTSEP.

S6S7AA-CCR5 = experiment: BRET CAMYEL Gαi signaling via S6S7AA-CCR5; assay type: cell-based, human; conditions: CHO cells, n = 3
Experimental: BRET measurements of Gαi signaling and β-arrestin recruitment: Cells were seeded in 6-well plates (500,000 cells/well) and transiently transfected the following day. For BRET measurements of Gαi signaling, cells were transfected with vectors encoding the human chemokine receptors as indicated (160 ng/well) and the CAMYEL sensor (cAMP sensor, YFP-Epac-RLuc) (840 ng/well) using Lipofectamine (6 µL/well). Briefly, DNA was dissolved in 125 µL OPTI-MEM and Lipofectamine was dissolved in 125 µL OPTI-MEM. The DNA and Lipofectamine solutions were combined into a transfection mixture. The transfection mixture was added dropwise to cells incubated in OPTI-MEM (1 mL/well). Transfections were terminated after 5 h by adding 1 mL of fresh culture medium on top of the OPTI-MEM. The following day the cells were loosened from the plates in PBS with 5 mM glucose and subsequently aliquoted in white 96-well iso plates (~25,000 cells/well). […] The BRET signal is determined as the ratio eYFP (530 nm)/Rluc (480 nm).
BRET principle with CAMYEL: For quantification of signaling initiated immediately downstream of receptor activation, we used the cAMP binding CAMYEL sensor to perform bioluminescence resonance energy transfer (BRET) based assays. […] The BRET ratio is determined as the ratio between YFP/Rluc, and an increase in BRET ratio indicates a decrease in cAMP and thus increased chemokine receptor activation. […]

naked CCR5 N-terminus = experiment: Fluorescence polarization binding to FAM-labeled CCR5 N-terminal peptide; parameters: species or system human
Experimental: as §1, §2

[1] = tested on: peptides corresponding to the CCR5 receptor N-terminus; conditions: cited from earlier work
Text: CCR5, in contrast to CCR1, has an N-terminus that is sparse in acidic amino acids but has multiple tyrosine sulfation sites as well as O-glycosylation sites, that might increase the negative charge of the receptor N-terminus through post-translational modifications. CCL5 affinity towards peptides corresponding to the CCR5 receptor N-terminus increases by ≥100-fold if the peptides are sulfated on Y10 and Y14 [30], and the same tyrosine sulfation is needed for HIV1env protein binding and viral entry.

[2] = target: fully sulfated version of the CCR1 N-terminal peptide; parameters: method as in PMID 30567735; conditions: read-out: affinity for the fully sulfated version of the CCR1 N-terminal peptide; cited from earlier work

Chain of naked CCR1 N-terminus (P32246 with tags, fused parts or gaps limits assumed): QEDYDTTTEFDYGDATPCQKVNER

Substance | Kd (naked CCR1 N-terminus) | boosting of CCL5 signaling via S6S7AA receptor variant (S6S7AA-CCR5; 10 µM peptide) | binding to the naked CCR5 N-terminus (naked CCR5 N-terminus) | increase of affinity towards CCR5 N-terminus peptides if sulfated on Y10 and Y14 [1] | Kd [2] | Gαi signaling via S6S7AA-CCR5 compared to WT-CCR5 (S6S7AA-CCR5)
RKDRGASKTGKKGKGSKGCKRTERSQTPKGP [C21TP^81-111] | ~2890 nM | maintained | no such binding is observed | – | – | –
CCL5: human chemokine from Peprotech, overall basic | – | – | – | ≥ 100 fold | 100 nM | significantly reduced

Reference: publication PMC11477141, “Chemokine Receptor N-Terminus Charge Dictates Reliance on Post-Translational Modifications for Effective Ligand Capture and Following Boosting by Defense Peptides” (International Journal of Molecular Sciences, 2024)
